Like-named read-outs stand apart in the source and are kept apart here.
Key:
[1] = Conversion rate (CR) assay with fluorescamine; format: physicochemical; design: key to CR: % = 100−100×filtrate/original fluorescence intensity
Summary of the method: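 To obtain β-sheet content, 1 mg/mL PNF solutions are freeze-dried and the powders recorded by ATR FT-IR at 2 cm^-1 resolution with 64 scans. Free monomer for CR is removed by 3 kDa MWCO centrifugation at 4 °C, and amines in filtrate and unfiltered material are detected with fluorescamine.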

[2] = format: physicochemical; design: key to Fibril / Fibril Formation / TEM 2cat / Fibril: 1 = fibrils present; 0 non-fibrillar structures; settings: for Fibril / Fibril Formation: 1 mg/mL, uranyl acetate stain, qualitative
[3] = format: physicochemical; settings: for ThT Cat. / ThT-Fluorescence (categorical): ThT-active if fluorescence at least twice the control; for Rel. ThT: n-fold ThT fluorescence vs control (PBS, 10% DMSO), 4 µL 1 mg/mL fibrils + 20 µL 50 µM ThT, 15 min RT, ex 440 / em 488 nm, triplicate
Summary of the method: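 Preformed peptide fibrils (1 mg/mL) mixed with 50 µM ThT in PBS, 15 min at RT, fluorescence ex 440/em 488 nm versus PBS blank, triplicates. Zeta potential: peptides at 1 mg/mL in PBS pH 7.4, aged 1 d at RT, diluted in 1 mM KCl, Smoluchowski from electrophoretic mobility.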

[4] = Fig. S7 panel B, conversion rate, fluorescamine assay
[5] = conversion rate, fluorescamine assay
[6] = Fig S10 panel D, fibril category by TEM
[7] = TEM, 1 = fibrils present, 0 = non-fibrillar
[8] = TEM, 1 = fibrils present, 0 = non-fibrillar structures
[9] = category: fibrils present or non-fibrillar
[10] = ThT fluorescence category, 1 if Rel. ThT >2
[11] = FigS12 panel A, fibril category by TEM
[12] = conversion of monomer to nanostructures, 3 kDa MWCO filtration, fluorescamine, ex 365 / em 470 nm, triplicate

Row | Substance | CR / % [1, 4] [%] | CR [1, 5] | TEM 2cat [2, 6] | Fibril ([2]; Fig S10 panel E) | Fibril / Fibril Formation ([2]; TEM) | Fibril [2, 7] | Fibril [2, 8] | TEM 2cat [2, 9] | Tht category (> 2 to blank = +) ([3]; Fig S10 panel D) | ThT Cat. ([3]; Fig S10 panel E) | ThT Cat, ([3]; ThT category, 1 if Rel. ThT >2) | ThT Cat. [3, 10] | ThT Cat. / ThT-Fluorescence (categorical) [3] | TEM 2cat ([2]; Fig S10 panel D) | ThT Cat. ([3]; ThT category, 1 if Rel. ThT >2) | TEM 2cat [2, 11] | Fibril ([2]; FigS12 panel B, TEM) | Tht category (> 2 to blank = +) ([3]; FigS12 panel A) | ThT Cat, ([3]; FigS12 panel B) | further results
1 | KFKFKFQF | 94 | 94 | 1 | 1 | 1 | 1 | 1 | 1 | 1 (ThT. Cat is 1, if Rel. ThT >2) | 1 (ThT. Cat is 1, if Rel. ThT >2) | 1 (ThT. Cat is 1, if Rel. ThT >2) | 1 (ThT. Cat is 1, if Rel. ThT >2) | 1 (ThT. Cat is 1, if Rel. ThT >2) |  |  |  |  |  |  | 
2 | KFKFQFFF | 98.5 | 98.46 | 1 | 1 | 1 | 1 | 1 | 1 | 1 (ThT. Cat is 1, if Rel. ThT >2) | 1 (ThT. Cat is 1, if Rel. ThT >2) | 1 (ThT. Cat is 1, if Rel. ThT >2) | 1 (ThT. Cat is 1, if Rel. ThT >2) | 1 (ThT. Cat is 1, if Rel. ThT >2) |  |  |  |  |  |  | 
3 | KFKFQFNM | 94.8 | 94.77 |  | 1 | 1 | 1 | 1 | 1 | 0 (ThT-inactive (N-Fold <2)) | 0 (ThT-inactive (N-Fold <2)) | 0 (ThT-inactive (N-Fold <2)) |  | 0 (ThT-inactive (N-Fold <2)) | 1 | 0 (ThT-inactive (N-Fold <2)) |  |  |  |  | 
4 | KIKIKIKIWW | 92 | 92 | 0 | 0 | 0 | 0 | 0 | 0 | 1 (ThT. Cat is 1, if Rel. ThT >2) | 1 (ThT. Cat is 1, if Rel. ThT >2) | 1 (ThT. Cat is 1, if Rel. ThT >2) | 1 (ThT. Cat is 1, if Rel. ThT >2) | 1 (ThT. Cat is 1, if Rel. ThT >2) |  |  |  |  |  |  | 
5 | KIKIKIQI | 80 | 80 | 1 | 1 | 1 | 1 | 1 |  | 1 (ThT. Cat is 1, if Rel. ThT >2) | 1 (ThT. Cat is 1, if Rel. ThT >2) | 1 (ThT. Cat is 1, if Rel. ThT >2) | 1 (ThT. Cat is 1, if Rel. ThT >2) | 1 (ThT. Cat is 1, if Rel. ThT >2) |  |  | 1 | 1 | 1 (ThT. Cat is 1, if Rel. ThT >2) | 1 (ThT. Cat is 1, if Rel. ThT >2) | 
6 | KIKIQIC | 51.5 | 51.55 | 1 | 1 | 1 | 1 | 1 | 1 | 1 (ThT. Cat is 1, if Rel. ThT >2) | 1 (ThT. Cat is 1, if Rel. ThT >2) | 1 (ThT. Cat is 1, if Rel. ThT >2) | 1 (ThT. Cat is 1, if Rel. ThT >2) | 1 (ThT. Cat is 1, if Rel. ThT >2) |  |  |  |  |  |  | 
7 | KIKIQIII | 87 | 87 | 1 | 1 | 1 | 1 | 1 | 1 | 1 (ThT. Cat is 1, if Rel. ThT >2) | 1 (ThT. Cat is 1, if Rel. ThT >2) | 1 (ThT. Cat is 1, if Rel. ThT >2) | 1 (ThT. Cat is 1, if Rel. ThT >2) | 1 (ThT. Cat is 1, if Rel. ThT >2) |  |  |  |  |  |  | 
8 | KIKQII | 13 | 12.97 | 0 | 0 | 0 | 0 | 0 |  | 0 (ThT-inactive (N-Fold <2)) | 0 (ThT-inactive (N-Fold <2)) | 0 (ThT-inactive (N-Fold <2)) | 0 (ThT-inactive (N-Fold <2)) | 0 (ThT-inactive (N-Fold <2)) |  |  | 0 | 0 | 0 (ThT-inactive (N-Fold <2)) | 0 (ThT-inactive (N-Fold <2)) | 
9 | QCKAKAQANM | 55.9 | 55.94 |  | 0 | 0 | 0 | 0 |  | 0 (ThT-inactive (N-Fold <2)) | 0 (ThT-inactive (N-Fold <2)) | 0 (ThT-inactive (N-Fold <2)) |  | 0 (ThT-inactive (N-Fold <2)) | 0 | 0 (ThT-inactive (N-Fold <2)) | 0 | 0 | 0 (ThT-inactive (N-Fold <2)) | 0 (ThT-inactive (N-Fold <2)) | CR / % [1, 12]: 56%; Rel. ThT [3]: 1.4
10 | QCKAKAQANMWQ | 89.3 | 89.28 |  | 0 | 0 | 0 | 0 |  | 0 (ThT-inactive (N-Fold <2)) | 0 (ThT-inactive (N-Fold <2)) | 0 (ThT-inactive (N-Fold <2)) |  | 0 (ThT-inactive (N-Fold <2)) | 0 | 0 (ThT-inactive (N-Fold <2)) | 0 | 0 | 0 (ThT-inactive (N-Fold <2)) | 0 (ThT-inactive (N-Fold <2)) | CR / % [1, 12]: 89%; Rel. ThT [3]: 1.5
11 | QCKFKQFFNM | 98.7 | 98.67 |  | 1 | 1 | 1 | 1 | 1 | 1 (ThT. Cat is 1, if Rel. ThT >2) | 1 (ThT. Cat is 1, if Rel. ThT >2) | 1 (ThT. Cat is 1, if Rel. ThT >2) |  | 1 (ThT. Cat is 1, if Rel. ThT >2) | 1 | 1 (ThT. Cat is 1, if Rel. ThT >2) |  |  |  |  | 
